Measured values published in patent US20020026052A1, “3-cyanoquinolines, 3-cyano-1,6-naphthyridines, and 3-cyano-1,7-naphthyridines as protein kinase inhibitors” (American Home Products Corporation, priority 2000, published 2002).

SMILES	melting point
COc1cc(Nc2c(C#N)cnc3cc(-c4cnc(CN5CCN(C)CC5)n4C)c(OC)cc23)c(Cl)cc1Cl [Example 233, 4-(2,4-Dichloro-5-methoxyanilino)-6-methoxy-7-{1-methyl-2-[(4-methyl-1-piperazinyl)methyl]-1H-imidazol-5-yl}-3-quinolinecarbonitrile]	234 to 236 °C
N#Cc1cnc2cc(-c3csc(C=O)c3)ccc2c1Nc1ccc(Cl)cc1Cl [Example 44, 4-(2,4-dichloroanilino)-7-(5-formyl-3-thienyl)-3-quinolinecarbonitrile]	286 to 288 °C
Cn1ccnc1Sc1ccc(Nc2c(C#N)cnc3ccc(-c4ccc(CN5CCOCC5)cn4)cc23)cc1Cl [Example 182, 4-({3-Chloro-4-[(1-methyl-1H-imidazol-2-yl)sulfanyl]phenyl}amino)-6-[5-(4-morpholinylmethyl)-2-pyridinyl]-3-quinolinecarbonitrile]	238 to 241 °C
Cn1ccnc1Sc1ccc(Nc2c(C#N)cnc3cc(-c4ccc(C=O)cn4)ccc23)cc1Cl [Example 170, 4-{3-Chloro-4-[(1-methyl-1H-imidazol-2-yl)sulfanyl]anilino}-7-(5-formyl-2-pyridinyl)-3-quinolinecarbonitrile]	130 °C (dec.)
Cn1ccnc1Sc1ccc(Nc2c(C#N)cnc3cc(-c4ccc(CN5CCC(C(=O)O)CC5)cn4)ccc23)cc1Cl [Example 175, 1-{[6-(4-{3-chloro-4-[(1-methyl-1H-imidazol-2-yl)sulfanyl]anilino}-3-cyano-7-quinolinyl)-3-pyridinyl]methyl}-4-piperidinecarboxylic acid]	166 to 168 °C
CN(CCO)Cc1ccc(-c2ccc3c(Nc4ccc(Sc5nccn5C)c(Cl)c4)c(C#N)cnc3c2)nc1 [Example 106, 4-({3-Chloro-4-[(1-methyl-IH-irnidazol-2-yl)sulfanyl]phenyl}amino)-7-(5-{[(2-hydroxyethyl) (methyl)amino]methyl}-2-pyridinyl)-3-quinolinecarbonitrile]	197 to 199 °C
Cn1ccnc1Sc1ccc(Nc2c(C#N)cnc3cc(-c4ccc(CN5CCOCC5)cc4)ccc23)cc1Cl [Example 63, 4-{3-chloro-4-[(1-methyl-1H-imidazol-2-yl)sulfanyl]anilino}-7-[4-(4-morpholinylmethyl)phenyl]-3-quinolinecarbonitrile]	148 to 150 °C
COc1cc(Nc2c(C#N)cnc3cc(-c4cnc(CN5CCN(C)CC5)n4C)ccc23)c(Cl)cc1Cl [Example 227, 4-(2,4-Dichloro-5-methoxyanilino)-7-{1-methyl-2-[(4-methyl-1-piperazinyl)methyl]-1H-imidazol-5-yl}-3-quinolinecarbonitrile]	156 to 159 °C
Cn1ccnc1Sc1ccc(Nc2c(C#N)cnc3cc(-c4ccc(N5CCC(O)CC5)nc4)ccc23)cc1Cl [Example 214, 4-({3-Chloro-4-[(1-methyl-1H-imidazol-2-yl)sulfanyl]phenyl}amino)-7-[6-(4-hydroxy-1-piperidinyl)-3-pyridinyl]-3-quinolinecarbonitrile]	178 to 180 °C
COc1cc(Nc2c(C#N)cnc3cc(-c4ccc(CN5CC[S+]([O-])CC5)cc4)ccc23)c(Cl)cc1Cl [Example 151, 4-[(2,4-Dichloro-5-methoxyphenyl)amino]-7-{4-[(1-oxido-4-thiomorpholinyl)methyl]phenyl}-3-quinolinecarbonitrile]	244 to 247 °C
N#Cc1cnc2ccc(-n3cccc3C=O)cc2c1Nc1cccc(Br)c1 [Example 60, 4-(3-Bromoanilino)-6-(2-formyl-1H-pyrrol-1-yl)-3-quinolinecarbonitrile]	94 to 95 °C
Cn1ccnc1Sc1ccc(Nc2c(C#N)cnc3cc(-c4ccc(C(=O)N5CCOCC5)cc4)ccc23)cc1Cl [Example 129, 4-({3-Chloro-4-[(i-methyl-IH-imidazol-2-yl)sulfanyl]phenyl}amino)-7-[4-(4-morpholinylcarbonyl)phenyl]-3-quinolinecarbonitrile]	98 to 101 °C
Cn1ccnc1Sc1ccc(Nc2c(C#N)cnc3cc(-c4ccc(CN5CCN(C(=O)OC(C)(C)C)CC5)cc4)ccc23)cc1Cl [Example 137, tert-butyl 4-{4-[4-({3-chloro-4-[(1-methylimidazol-2-yl)sulfanyl]phenyl}amino)-3-cyano-7-quinolinyl]benzyl}-1-piperazinecarboxylate]	184 to 186 °C
Cn1ccnc1Sc1ccc(Nc2c(C#N)cnc3cc(-c4ccc(Cl)cn4)ccc23)cc1Cl [Example 178, 4-({3-Chloro-4-[(1-methyl-1H-imidazol-2-yl)sulfanyl]phenyl}amino)-7-(5-chloro-2-pyridinyl)-3-quinolinecarbonitrile]	205 to 207 °C
N#Cc1cnc2cc(-c3csc(CN4CCOCC4)c3)ccc2c1Nc1ccc(Oc2ccccc2)cc1 [Example 7, 7-[5-(4-Morpholinylmethyl)-3-thienyl]-4-(4-phenoxyanilino)-3-quinolinecarbonitrile]	221 to 223 °C
N#Cc1cnc2cc(-c3cc(CN4CCOCC4)c(CN4CCOCC4)s3)ccc2c1Nc1ccc(Oc2ccccc2)cc1 [Example 168, 7-[4,5-Bis(4-morpholinylmethyl)-2-thienyl]-4-(4-phenoxyanilino)-3-quinolinecarbonitrile]	158 to 160 °C
COc1cc(Nc2c(C#N)cnc3cc(-c4cnc(CN5CCOCC5)n4C)ccc23)c(Cl)cc1Cl [Example 226, 4-(2,4-Dichloro-5-methoxyanilino)-7-[1-methyl-2-(4-morpholinylmethyl)-1H-imidazol-5-yl]-3-quinolinecarbonitrile]	140 to 143 °C
COc1cc(Nc2c(C#N)cnc3cc(-c4ccc(CN5CCOCC5)cn4)ccc23)c(Cl)cc1Cl	220 to 222 °C
CCN1CCN(c2ccc(-c3ccc4c(Nc5cc(OC)c(Cl)cc5Cl)c(C#N)cnc4c3)cn2)CC1 [Example 197, 4-(2,4-Dichloro-5-methoxyanilino)-7-[6-(4-ethyl-1-piperazinyl)-3-pyridinyl]-3-quinolinecarbonitrile]	264 to 266 °C

More lines, now with the values ahead:

melting point	SMILES
227 to 279 °C	CN1CCN(c2ccc(-c3ccc4c(Nc5ccc(Sc6nccn6C)c(Cl)c5)c(C#N)cnc4c3)cn2)CC1 [Example 196, 4-{3-Chloro-4-[(1-methyl-1H-irnidazol-2-yl)sulfanyl]anilino}-7-[6-(4-methyl-1-piperazinyl)-3-pyridinyl]-3-quinolinecarbonitrile]
217 to 220 °C	CN1CCN(Cc2cccnc2-c2ccc3c(Nc4ccc(Sc5nccn5C)c(Cl)c4)c(C#N)cnc3c2)CC1 [Example 209, 4-({3-Chloro-4-[(I -methyl-1H-imidazol-2-yl)sulfanyl]phenyl}amino)-7-{3-[(4-methyl-1-piperazinyl)methyl]-2-pyridinyl}-3-quinolinecarbonitrile]
228 to 230 °C	CN1CCN(Cc2ccc(-c3ccc4c(Nc5ccc(Sc6nccn6C)c(Cl)c5)c(C#N)cnc4c3)cn2)CC1 [Example 221, 4-({3-Chloro-4-[(1-methyl-1H-imidazol-2-yl)sulfanyl]phenyl}amino)-7-1-{6-[(4-methyl-1-piperazinyl)methyl]-3-pyridinyl}-3-quinolinecarbonitrile]
242 to 244 °C	Cn1ccnc1Sc1ccc(Nc2c(C#N)cnc3cc(-c4ccc(CN5CCC(O)CC5)nc4)ccc23)cc1Cl [Example 223, 4-({3-Chloro-4-[(1-methyl-1H-imidazol-2-yl)sulfanyl]phenyl}amino)-7-{6-[(4-hydroxy-1-piperidinyl)methyl]-3-pyridinyl}-3-quinolinecarbonitrile]
197 to 199 °C	CN1CCN(Cc2ccc(-c3ccc4c(Nc5ccc(Sc6nccn6C)c(Cl)c5)c(C#N)cnc4c3)nc2)CC1 [Example 189, 4-{3-Chloro-4-[(1-methyl-1H-imidazol-2-yl)sulfanyl]anilino}-7-1-{5-[(4-methyl-1-piperazinyl)methyl]-2-pyridinyl}-3-quinolinecarbonitrile]
162 to 164 °C	COc1cc2c(Nc3ccc(Sc4nccn4C)c(Cl)c3)c(C#N)cnc2cc1-c1csc(CN2CCN(C)CC2)c1 [Example 126, 4-{3-chloro-4-[(1-methylimidazol-2-yl)sulfanyl]anilino}-6-methoxy-7-{5-[(4-methyl-1-piperazinyl)methyl]-3-thienyl}-3-quinolinecarbonitrile]
214 to 216 °C	CCN1CCN(Cc2cccc(-c3ccc4c(Nc5ccc(Sc6nccn6C)c(Cl)c5)c(C#N)cnc4c3)n2)CC1 [Example 201, 4-{3-Chloro-4-[(1-methyl-1H-imidazol-2-yl)sulfanyl]anilino}-7-{6-[(4-ethyl-1-piperazinyl)methyl]-2-pyridinyl}-3-quinolinecarbonitrile]
202 to 203 °C	CN1CCN(Cc2ccc(-c3ccc4c(Nc5ccc(Sc6nccn6C)c(Cl)c5)c(C#N)cnc4c3)cc2)CC1 [Example 135, 4-{3-chloro-4-[(1-methylimidazol-2-yl)sulfanyl]anilino}-7-{4-[(4-methyl-1-piperazinyl)methyl]phenyl}-3-quinolinecarbonitrile]
205 to 207 °C	Cn1ccnc1Sc1ccc(Nc2c(C#N)cnc3cc(-c4cc(CN5CCOCC5)ccn4)ccc23)cc1Cl [Example 203, 4-({3-Chloro-4-[(1-methyl-1H-imidazol-2-yl)sulfanyl]phenyl}amino)-7-[4-(4-morpholinylmethyl)-2-pyridinyl]-3-quinolinecarbonitrile]
150 °C (dec.)	CCN1CCN(c2ccc(-c3ccc4ncc(C#N)c(Nc5ccc(Sc6nccn6C)c(Cl)c5)c4c3)nc2)CC1 [Example 181, 4-({3-Chloro-4-[(1-methyl-1H-imidazol-2-yl)sulfanyl]phenyl}amino)-6-[5-(4-ethyl-1-piperazinyl)-2-pyridinyl]-3-quinolinecarbonitrile]
193 to 195 °C	CC(C)N1CCN(Cc2ccc(-c3ccc4c(Nc5ccc(Sc6nccn6C)c(Cl)c5)c(C#N)cnc4c3)cc2)CC1 [Example 98, 4-({3-Chloro-4-[(1-methyl-1H-imidazol-2-yl)sulfanyl]phenyl}amino)-7-{4-[(4-isopropyl-1-piperazinyl)methyl]phenyl}-3-quinolinecarbonitrile]
